Reference: the supplement of paper PMC10883282
± gives the standard deviation of the averaged measurements.

How the values were obtained:
Test in all cases: relative viability vs DMSO control (72 h) (fraction); higher = more viable cells
[1] = system: G401
Outline: (§1)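 Sarcoma cell lines were seeded in 384-well plates at densities chosen for 80–90% confluence, then 24 h later given 2.5 µl of serially diluted compound drawn from source plates spanning 10 mM to 0.0002 mM. They were held 72 h at 37 °C, 5% CO2, with 0.1% DMSO vehicle and a 5 µM positive control included. Relative viability was read with ATPLite as percent growth and averaged over up to triplicate wells. Rescaling placed full at 1 and none at 0.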

[2] = system: A204
Outline: as §1

[3] = system: SYO-1
Outline: as §1

[4] = system: SW872
Outline: as §1

[5] = system: KHOS-NP
Outline: as §1

[6] = system: MES-SA
Outline: as §1

[7] = system: HT1080
Outline: as §1

[8] = system: SK-LMS-1
Outline: as §1

[9] = system: HS729
Outline: as §1

[10] = system: SW684
Outline: as §1

[11] = system: SW1353
Outline: as §1

[12] = system: VA-ES-BJ
Outline: as §1

C=CC(=O)N1CCC(CNc2ncnc(N)c2-c2ccc(Oc3ccccc3)cc2)CC1 [Evobrutinib]
relative viability ([1]; 0.00017 µM): 1.05 ± 0.04
relative viability ([1]; 0.00051 µM): 1.01 ± 0.032
relative viability ([1]; 0.00152 µM): 1.01 ± 0.044
relative viability ([1]; 0.00457 µM): 1.02 ± 0.03
relative viability ([1]; 0.01372 µM): 1.03 ± 0.02
relative viability ([1]; 0.04115 µM): 1.03 ± 0.041
relative viability ([1]; 0.1235 µM): 1 ± 0.037
relative viability ([1]; 0.3704 µM): 1.02 ± 0.048
relative viability ([1]; 1.111 µM): 0.982 ± 0.088
relative viability ([1]; 3.333 µM): 1 ± 0.055
relative viability ([1]; 10 µM): 0.894 ± 0.022
relative viability ([2]; 0.00017 µM): 1.1 ± 0.057
relative viability ([2]; 0.00051 µM): 1.16 ± 0.065
relative viability ([2]; 0.00152 µM): 1.16 ± 0.091
relative viability ([2]; 0.00457 µM): 1.11 ± 0.064
relative viability ([2]; 0.01372 µM): 1.02 ± 0.083
relative viability ([2]; 0.04115 µM): 1.05 ± 0.031
relative viability ([2]; 0.1235 µM): 1.07 ± 0.099
relative viability ([2]; 0.3704 µM): 1.04 ± 0.07
relative viability ([2]; 1.111 µM): 1.07 ± 0.058
relative viability ([2]; 3.333 µM): 1.02 ± 0.022
relative viability ([2]; 10 µM): 0.871 ± 0.037
relative viability ([3]; 0.00017 µM): 1.018 ± 0.0036
relative viability ([3]; 0.00051 µM): 1.02 ± 0.026
relative viability ([3]; 0.00152 µM): 1.03 ± 0.017
relative viability ([3]; 0.00457 µM): 1.02 ± 0.013
relative viability ([3]; 0.01372 µM): 1.03 ± 0.032
relative viability ([3]; 0.04115 µM): 0.998 ± 0.01
relative viability ([3]; 0.1235 µM): 0.992 ± 0.034
relative viability ([3]; 0.3704 µM): 0.994 ± 0.018
relative viability ([3]; 1.111 µM): 0.965 ± 0.036
relative viability ([3]; 3.333 µM): 0.953 ± 0.024
relative viability ([3]; 10 µM): 0.894 ± 0.059
relative viability ([4]; 0.00017 µM): 1.05 ± 0.011
relative viability ([4]; 0.00051 µM): 1.056 ± 0.0072
relative viability ([4]; 0.00152 µM): 1.04 ± 0.02
relative viability ([4]; 0.00457 µM): 1.04 ± 0.034
relative viability ([4]; 0.01372 µM): 1.03 ± 0.026
relative viability ([4]; 0.04115 µM): 1.03 ± 0.031
relative viability ([4]; 0.1235 µM): 1.07 ± 0.023
relative viability ([4]; 0.3704 µM): 1.04 ± 0.035
relative viability ([4]; 1.111 µM): 1.02 ± 0.013
relative viability ([4]; 3.333 µM): 1.03 ± 0.021
relative viability ([4]; 10 µM): 1.01 ± 0.02
relative viability ([5]; 0.00017 µM): 1.11 ± 0.014
relative viability ([5]; 0.00051 µM): 1.13 ± 0.031
relative viability ([5]; 0.00152 µM): 1.13 ± 0.016
relative viability ([5]; 0.00457 µM): 1.13 ± 0.031
relative viability ([5]; 0.01372 µM): 1.12 ± 0.028
relative viability ([5]; 0.04115 µM): 1.128 ± 0.0056
relative viability ([5]; 0.1235 µM): 1.12 ± 0.028
relative viability ([5]; 0.3704 µM): 1.12 ± 0.034
relative viability ([5]; 1.111 µM): 1.12 ± 0.032
relative viability ([5]; 3.333 µM): 1.12 ± 0.03
relative viability ([5]; 10 µM): 1.12 ± 0.022
relative viability ([6]; 0.00017 µM): 1 ± 0.05
relative viability ([6]; 0.00051 µM): 0.9618 ± 0.0083
relative viability ([6]; 0.00152 µM): 0.963 ± 0.027
relative viability ([6]; 0.00457 µM): 0.9579 ± 0.0076
relative viability ([6]; 0.01372 µM): 0.964 ± 0.028
relative viability ([6]; 0.04115 µM): 0.956 ± 0.0076
relative viability ([6]; 0.1235 µM): 0.968 ± 0.044
relative viability ([6]; 0.3704 µM): 0.933 ± 0.019
relative viability ([6]; 1.111 µM): 0.928 ± 0.014
relative viability ([6]; 3.333 µM): 0.892 ± 0.055
relative viability ([6]; 10 µM): 0.792 ± 0.035
relative viability ([7]; 0.00017 µM): 1.11 ± 0.033
relative viability ([7]; 0.00051 µM): 1.1 ± 0.03
relative viability ([7]; 0.00152 µM): 1.1 ± 0.021
relative viability ([7]; 0.00457 µM): 1.14 ± 0.06
relative viability ([7]; 0.01372 µM): 1.082 ± 0.002
relative viability ([7]; 0.04115 µM): 1.08 ± 0.023
relative viability ([7]; 0.1235 µM): 1.091 ± 0.0021
relative viability ([7]; 0.3704 µM): 1.078 ± 0.0066
relative viability ([7]; 1.111 µM): 1.07 ± 0.057
relative viability ([7]; 3.333 µM): 1.1 ± 0.012
relative viability ([7]; 10 µM): 1.08 ± 0.018
relative viability ([8]; 0.00017 µM): 1.08 ± 0.013
relative viability ([8]; 0.00051 µM): 1.1 ± 0.027
relative viability ([8]; 0.00152 µM): 1.08 ± 0.011
relative viability ([8]; 0.00457 µM): 1.08 ± 0.017
relative viability ([8]; 0.01372 µM): 1.04 ± 0.024
relative viability ([8]; 0.04115 µM): 1.11 ± 0.029
relative viability ([8]; 0.1235 µM): 1.11 ± 0.049
relative viability ([8]; 0.3704 µM): 1.05 ± 0.029
relative viability ([8]; 1.111 µM): 1.08 ± 0.07
relative viability ([8]; 3.333 µM): 0.997 ± 0.065
relative viability ([8]; 10 µM): 0.981 ± 0.013
relative viability ([9]; 0.00017 µM): 1.08 ± 0.049
relative viability ([9]; 0.00051 µM): 1.09 ± 0.077
relative viability ([9]; 0.00152 µM): 1.04 ± 0.041
relative viability ([9]; 0.00457 µM): 1.07 ± 0.027
relative viability ([9]; 0.01372 µM): 1.03 ± 0.05
relative viability ([9]; 0.04115 µM): 0.991 ± 0.09
relative viability ([9]; 0.1235 µM): 1.01 ± 0.061
relative viability ([9]; 0.3704 µM): 1.01 ± 0.039
relative viability ([9]; 1.111 µM): 0.978 ± 0.078
relative viability ([9]; 3.333 µM): 0.938 ± 0.091
relative viability ([9]; 10 µM): 0.862 ± 0.07
relative viability ([10]; 0.00017 µM): 1.15 ± 0.035
relative viability ([10]; 0.00051 µM): 1.19 ± 0.037
relative viability ([10]; 0.00152 µM): 1.2 ± 0.024
relative viability ([10]; 0.00457 µM): 1.22 ± 0.019
relative viability ([10]; 0.01372 µM): 1.2 ± 0.062
relative viability ([10]; 0.04115 µM): 1.16 ± 0.075
relative viability ([10]; 0.1235 µM): 1.22 ± 0.059
relative viability ([10]; 0.3704 µM): 1.18 ± 0.012
relative viability ([10]; 1.111 µM): 1.19 ± 0.059
relative viability ([10]; 3.333 µM): 1.19 ± 0.014
relative viability ([10]; 10 µM): 1.174 ± 0.0072
relative viability ([11]; 0.00017 µM): 1.07 ± 0.042
relative viability ([11]; 0.00051 µM): 1.07 ± 0.019
relative viability ([11]; 0.00152 µM): 1.09 ± 0.025
relative viability ([11]; 0.00457 µM): 1.06 ± 0.029
relative viability ([11]; 0.01372 µM): 1.02 ± 0.049
relative viability ([11]; 0.04115 µM): 1.007 ± 0.0014
relative viability ([11]; 0.1235 µM): 1.048 ± 0.0084
relative viability ([11]; 0.3704 µM): 1.02 ± 0.043
relative viability ([11]; 1.111 µM): 0.974 ± 0.067
relative viability ([11]; 3.333 µM): 0.949 ± 0.016
relative viability ([11]; 10 µM): 0.853 ± 0.068
relative viability ([12]; 0.00017 µM): 1.1 ± 0.028
relative viability ([12]; 0.00051 µM): 1.08 ± 0.027
relative viability ([12]; 0.00152 µM): 1.07 ± 0.012
relative viability ([12]; 0.00457 µM): 1.08 ± 0.043
relative viability ([12]; 0.01372 µM): 1.09 ± 0.048
relative viability ([12]; 0.04115 µM): 1.043 ± 0.0079
relative viability ([12]; 0.1235 µM): 1.06 ± 0.017
relative viability ([12]; 0.3704 µM): 1.06 ± 0.046
relative viability ([12]; 1.111 µM): 1.06 ± 0.042
relative viability ([12]; 3.333 µM): 1.1 ± 0.038
relative viability ([12]; 10 µM): 1.1 ± 0.032
